# Columns and labels:
# [1] = tested on: purpose-bred beagles; test: Serum glucose after single oral dose and glucose challenge 1 h post-dose in dogs; type: in vivo, dog; settings: mean ± SD; for Serum Glucose Concentration, 30 min / Serum Glucose Concentration, 60 min / Serum Glucose Concentration, 120 min / Serum Glucose Concentration, 15 min: after glucose challenge; for Serum Glucose Concentration, −60 min: before dosing; for Serum Glucose Concentration, 0 min: before glucose challenge (1 h post-dose)
# Method: Groups of four purpose-bred beagles per cohort were administered ascending doses of bexagliflozin in the form of a proline co-crystal consisting of two moles of L-proline for every mole of bexagliflozin. The co-crystal was dissolved in 10% PEG400 and administered by oral gavage to dogs that had been fasted overnight. Control dogs were administered 10% PEG400. One hour after dosing, glucose solution (2 g kg^−1, 5 ml kg^−1) was administered by gavage. Serum glucose concentrations were quantitated by an automated clinical chemistry analyzer for samples collected before dosing, before glucose challenge, and 15, 30, 60, and 120 min after glucose challenge. Urine was collected from 0 to 4 h, 4 to 8 h and 8 to 24 h after dosing for electrolyte analyses (Na^+, K^+, Cl^− and Ca^2+) and glucose measurement. Whole blood samples of approximately 500 μL were collected from the cephalic vein 0, 0.25, 0.5, 1, 2, 4, 8, 12 and 24 h after dosing for pharmacokinetic analysis.
# [2] = tested on: Sprague-Dawley rats; test: PPAR-γ agonist (pioglitazone)-mediated fluid retention / plasma expansion model, 7 days, drugs in drinking water; type: in vivo, rat
# From the text: It has been recognized in human clinical practice that an undesirable side effect of PPAR-γ agonists of the thiazolidinedione class is fluid retention and edema, which limits their use in patients with congestive heart failure. The mechanism of action of the thiazolidinediones is believed to be through stimulation of expression of the epithelial sodium channel (ENaC) in the kidney, resulting in an increased uptake of sodium ions from the distal tubule. Sodium retention and the associated expansion of extracellular fluid volume are characteristic features of congestive heart failure in multiple species. […] The sodium channel blocker amiloride was delivered in drinking water to a third group of rats as a comparator. Plasma expansion was measured by hematocrit. […] Food weight was recorded to measure consumption over the course of the experiment. […] Full bottles were pre-weighed and the weights recorded to allow consumption to be measured over the course of the experiment. On days 1 and 7, rats were warmed using a heating pad and lightly anesthetized using isoflurane. Using a sterile scalpel blade, a small tail nick was made on the distal one third of the tail. Blood was collected in a heparinized microcapillary tube sealed with putty at one end and stored on ice until centrifugation (5000 rpm, 5 min). Plasma volume was determined using a microhematocrit capillary tube reader card. On day 7, rats, food and water bottles were again weighed and recorded and hematocrits were determined using blood collected by a tail nick.
# [3] = tested on: feline SGLT1; test: Inhibition of feline SGLT1
# [4] = tested on: cats; test: Urinary glucose excretion in cats given bexagliflozin tablets; type: in vivo, cat
# [5] = tested on: cats with diabetes; test: Owner and veterinarian assessments of vitality and weight in diabetic cats; type: in vivo, cat
# From the text: Assessments by both owners and veterinarians of correlative measures of cat vitality were also collected over the course of various studies. Some of the relevant measures for this analysis are the subjective impressions of cat musculature, solicited from both owners and veterinarians, and owner views of cat overall activity as well as leaping ability. The rating instrument was a 4-point scale with 0=excellent, 1=good, 2=fair and 3=poor.
# [6] = rats, day 1 to day 7, mean ± SEM
# [7] = rats, pioglitazone diet, mean ± SEM
# [8] = rats, relative to day 1, mean ± SEM
smiles,measurement,setting,value
"OC[C@H]1O[C@@H](c2ccc(Cl)c(Cc3ccc(OCCOC4CC4)cc3)c2)[C@H](O)[C@@H](O)[C@@H]1O [Bexagliflozin, (2S,3R,4R,5 S,6R)-2-(4-chloro-3-(4-(2-cyclopropoxyethoxy)benzyl)phenyl)-6-(hydroxymethyl)tetrahydro-2H-pyran-3,4,5-triol]","Serum Glucose Concentration, 30 min",[1]; 0.067 mg kg^−1 oral,104.31 ± 26.84 mg/dL
same,"Serum Glucose Concentration, 60 min",[1]; 0.067 mg kg^−1 oral,104.27 ± 17.85 mg/dL
same,"Serum Glucose Concentration, 120 min",[1]; 0.067 mg kg^−1 oral,79.65 ± 11.69 mg/dL
same,"Serum Glucose Concentration, −60 min",[1]; 0.067 mg kg^−1 oral,98.64 ± 7.63 mg/dL
same,"Serum Glucose Concentration, 0 min",[1]; 0.067 mg kg^−1 oral,91.58 ± 6.49 mg/dL
same,"Serum Glucose Concentration, 15 min",[1]; 0.20 mg kg^−1 oral,96.71 ± 7.21 mg/dL
same,"Serum Glucose Concentration, 30 min",[1]; 0.20 mg kg^−1 oral,105.48 ± 18.67 mg/dL
same,"Serum Glucose Concentration, 60 min",[1]; 0.20 mg kg^−1 oral,101.75 ± 14.83 mg/dL
same,"Serum Glucose Concentration, 120 min",[1]; 0.20 mg kg^−1 oral,76.10 ± 7.91 mg/dL
same,"Serum Glucose Concentration, −60 min",[1]; 0.20 mg kg^−1 oral,97.02 ± 7.61 mg/dL
same,"Serum Glucose Concentration, 0 min",[1]; 0.20 mg kg^−1 oral,84.65 ± 7.98 mg/dL
same,"Serum Glucose Concentration, 15 min",[1]; 0.67 mg kg^−1 oral,109.94 ± 17.55 mg/dL
same,"Serum Glucose Concentration, 30 min",[1]; 0.67 mg kg^−1 oral,109.04 ± 26.58 mg/dL
same,"Serum Glucose Concentration, 60 min",[1]; 0.67 mg kg^−1 oral,106.79 ± 11.98 mg/dL
same,"Serum Glucose Concentration, 120 min",[1]; 0.67 mg kg^−1 oral,76.95 ± 11.53 mg/dL
same,"Serum Glucose Concentration, −60 min",[1]; 0.67 mg kg^−1 oral,97.70 ± 5.27 mg/dL
same,"Serum Glucose Concentration, 0 min",[1]; 0.67 mg kg^−1 oral,87.08 ± 6.03 mg/dL
same,"Serum Glucose Concentration, 15 min",[1]; 2.0 mg kg^−1 oral,104.49 ± 9.60 mg/dL
same,"Serum Glucose Concentration, 30 min",[1]; 2.0 mg kg^−1 oral,112.86 ± 9.82 mg/dL
same,"Serum Glucose Concentration, 60 min",[1]; 2.0 mg kg^−1 oral,108.81 ± 6.77 mg/dL
same,"Serum Glucose Concentration, 120 min",[1]; 2.0 mg kg^−1 oral,71.06 ± 5.49 mg/dL
same,"Serum Glucose Concentration, −60 min",[1]; 2.0 mg kg^−1 oral,92.21 ± 7.11 mg/dL
same,"Serum Glucose Concentration, 0 min",[1]; 2.0 mg kg^−1 oral,85.10 ± 4.74 mg/dL
same,"Plasma volume, Day 7","[2]; rats after 7 days pioglitazone diet, group mean ± SEM",54.7 ± 0.6 % of blood volume
same,"Plasma volume, Day 1","[2]; rats on 0.03% pioglitazone diet, by hematocrit, group mean ± SEM",52.9 ± 0.5 % of blood volume
same,Effect on pioglitazone-mediated plasma expansion (conclusion),"[2]; rats, 7 days",substantially attenuates pioglitazone-mediated plasma expansion
same,"Body Weight (%), Δ (percent mass gain)",[2]; [6],4.8 ± 1.3 %
same,"Body Weight (g), Δ",[2]; [6],17.5 ± 4.7 g
same,"Body Weight (%), Δ (percent mass gain)","[2]; rats, day 1 to day 7, mean ± SEM, listed as bexagliflozin",4.8%
same,"Plasma volume, Δ (day 1 to day 7)","[2]; rats, pioglitazone diet, group mean ± SEM",1.8 ± 0.8 % of blood volume
same,"Body Weight (g), Day 1",[2]; [7],371.7 ± 5.0 ^ g
same,"Body Weight (g), Day 7",[2]; [7],389.2 ± 5.7 ^†† g
same,"Body Weight (%), Day 1",[2]; [8],100 ± 0 ^ %
same,"Body Weight (%), Day 7",[2]; [8],104.8 ± 1.3 ^†† %
same,potency for feline SGLT1 (in words),[3],high potency
same,% of the maximum pharmacodynamic effect,"[4]; cats, dose 200 μg kg^−1, based on results in purpose-bred cats",28%
same,% of the maximum pharmacodynamic effect,"[4]; cats, dose 400 μg kg^−1",44%
same,% of the maximum pharmacodynamic effect,"[4]; cats, dose 800 μg kg^−1",61%
same,% of the maximum pharmacodynamic effect,"[4]; cats, dose 1600 μg kg^−1",76%
same,% of the maximum pharmacodynamic effect,"[4]; cats, dose 3200 μg kg^−1",86%
same,% of the maximum pharmacodynamic effect,"[4]; cats, dose 6400 μg kg^−1",93%
same,% of the maximum pharmacodynamic effect,"[4]; cats, dose 12800 μg kg^−1",96%
same,% of the maximum pharmacodynamic effect,"[4]; cats, dose 25600 μg kg^−1",98%
same,ED50 for urinary glucose excretion,"[4]; cats, tablets of varying strengths, simple logistic model",approximately 0.5 mg kg^−1
same,Emax for urinary glucose excretion,[4]; healthy cats,2.21 g of glucose per kg of body mass
same,owner assessment of activity,[5]; 4-point scale,more active
same,owner assessment of leaping ability,[5]; 4-point scale,better leaping ability
same,veterinarian and owner assessments of musculature,"[5]; 4-point scale, statistically significant",musculature of study cats had improved
same,mean cat weight,"[5]; by visit, highly significant",mean cat weight increased
